Measured values taken from patent publication US20040048866A1 (priority 2002, published 2004).

Target: T1, α1 and β1 subunits of guanylate cyclase (sGC), expressed in Sf9 cells (Homo sapiens, UniProt Q02108+Q02153)
T1 construct: made in house; host or cells: Sf9 insect cells (baculovirus co-infection); high-speed supernatant used unpurified
T1 sequence (Q02108 1-690): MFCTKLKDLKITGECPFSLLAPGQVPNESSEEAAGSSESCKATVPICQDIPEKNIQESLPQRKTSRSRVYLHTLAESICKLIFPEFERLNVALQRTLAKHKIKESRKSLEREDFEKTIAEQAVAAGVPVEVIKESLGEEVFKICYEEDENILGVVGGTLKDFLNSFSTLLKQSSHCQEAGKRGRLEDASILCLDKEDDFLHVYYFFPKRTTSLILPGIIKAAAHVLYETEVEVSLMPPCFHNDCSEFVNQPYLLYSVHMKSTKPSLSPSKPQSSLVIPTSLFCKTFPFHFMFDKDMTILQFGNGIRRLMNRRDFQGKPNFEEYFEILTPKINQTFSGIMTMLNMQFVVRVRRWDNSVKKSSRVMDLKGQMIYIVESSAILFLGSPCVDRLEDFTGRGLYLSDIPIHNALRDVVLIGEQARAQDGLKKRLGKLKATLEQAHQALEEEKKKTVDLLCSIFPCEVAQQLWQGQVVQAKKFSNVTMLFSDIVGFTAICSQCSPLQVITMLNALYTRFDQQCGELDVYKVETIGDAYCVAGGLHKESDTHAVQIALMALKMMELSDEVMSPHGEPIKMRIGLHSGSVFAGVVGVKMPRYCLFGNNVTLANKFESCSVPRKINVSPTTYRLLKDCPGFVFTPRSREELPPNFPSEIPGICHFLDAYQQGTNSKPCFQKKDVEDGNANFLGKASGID
T1 sequence (Q02153 1-619): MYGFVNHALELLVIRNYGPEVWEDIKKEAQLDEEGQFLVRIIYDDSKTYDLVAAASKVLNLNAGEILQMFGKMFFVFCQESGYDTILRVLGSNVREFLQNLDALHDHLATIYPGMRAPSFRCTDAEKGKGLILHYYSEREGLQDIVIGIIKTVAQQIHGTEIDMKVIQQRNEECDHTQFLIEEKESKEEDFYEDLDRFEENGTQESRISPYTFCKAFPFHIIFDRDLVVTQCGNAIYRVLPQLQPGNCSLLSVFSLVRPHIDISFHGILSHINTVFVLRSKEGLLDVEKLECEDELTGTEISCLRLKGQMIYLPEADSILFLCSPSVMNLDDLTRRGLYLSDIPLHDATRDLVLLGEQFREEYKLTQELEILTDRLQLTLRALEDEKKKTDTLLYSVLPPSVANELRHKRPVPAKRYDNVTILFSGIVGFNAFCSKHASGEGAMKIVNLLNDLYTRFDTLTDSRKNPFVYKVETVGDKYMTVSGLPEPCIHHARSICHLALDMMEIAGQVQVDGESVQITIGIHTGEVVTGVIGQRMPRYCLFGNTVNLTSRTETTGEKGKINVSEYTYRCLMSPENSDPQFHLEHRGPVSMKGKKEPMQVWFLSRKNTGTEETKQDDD
Experiment: Guanylate Cyclase Assay (formation of cyclic GMP from GTP)
Format: biochemical
Conditions: for Mean efficacy at 100 μM with 1 μM of SNP, [% of YC-1]: compound at 100 μM with 1 μM sodium nitroprusside (SNP), normalized to 100 μM YC-1 (without SNP) as 100%; for Emax at 100 µM: compound at 100 μM without SNP, normalized to activity of 100 μM YC-1 (without SNP) as 100%, read-out: Mean basal efficacy at 100 μM, [% of YC-1]; for Mean activation at 100 μM: (activity at 100 μM with 1 μM SNP − activity at 100 μM)/(activity of SNP at 1 μM − basal activity of sGC)
Method: Sf9 cells were cultured in Sf-90011 medium supplemented with 10% (v/v) fetal calf serum at 28° C. to give a count of 6×10^5 cells/ml. The cells were then infected with a mixture of the virus stocks for the α1 and β1 subunits of guanylate cyclase at a multiplicity of infection of 0.1 pfu/cell. The cells were harvested 72 hours after infection and were pelleted by centrifugation. The resulting cell pellets were homogenized with Polytron homogenizer in 3 volumes of 20 mM Tris-HCl (pH 7.6) containing 1 mM EDTA, 5 mM dithiothreitol, 90 mM NaCl, 10% glycerol, and protease inhibitors mix (Roche Molecular Biochemicals). The homogenate was centrifuged at 50,000×g for 60 minutes and the supernatant was aliquotted and stored at −80° C.
Compounds of the present invention were dissolved in DMSO to make 100 mM and saved as stocks at −20° C. When compounds were tested, 10-fold concentrated solutions with 10% DMSO were prepared. 10 μl of 10-fold concentrated compound solutions were added to the reaction mixture total of 100 μl.
Guanylate cyclase activity was measured by the formation of cyclic GMP from GTP in a total volume of 100 μl. Guanylate cyclase-expressed Sf9 cell high-speed supernatant (Sf9 high-speed sup) was used as an enzyme source for the assay. The reaction mixture containing 0.1 μl enzyme of Sf9 high-speed sup, compound solution, 50 mM Tris-HCl (pH 7.6), 4 mM MgCl2, 0.5 mM IBMX, 15 mM creatine phosphate, 20 μg creatine phosphokinase, 0.1% BSA and 1 mM GTP were incubated at 37° C. for 15 minutes. After the reaction, 0.9 ml of 50 mM sodium acetate buffer (pH 5.8) was added followed by boiling for 3 minutes to stop the reaction. The solution was centrifuged at 3000 rpm for 15 minutes at room temperature and cyclic GMP in 20 μl of the resulting supernatant was measured according to the protocol of Amersham cyclic GMP enzymeimmunoassay system (Amersham, RPN 226).
Compounds of the present invention were tested at 100 μM with and without 1 μM of sodium nitroprusside (SNP). YC-1 was included as a standard for each assay. The data was normalized with the activity of 100 μM YC-1 (without SNP) as 100%. Mean basal efficacy, in Table 1, was expressed as a percentage of 100 μM YC-1 (without SNP).
The mean activation, in Table 1, was calculated based on the formula: (activity of compound of the present invention at 100 μM with 1 μM SNP)−(activity of compound of on at 100 μM)/(activity of SNP at 1 μM)−(basal activity of sGC).

Row | Structure (SMILES) | Mean efficacy at 100 μM with 1 μM of SNP, [% of YC-1] | Emax at 100 µM [%] | Mean activation at 100 μM
1 | OCc1ccc(Oc2nn(Cc3ccccc3)c3ccccc23)o1 [Example 1, {5-[(1-benzyl-1H-indazol-3-yl)oxy]-2-furyl}methanol] | 38 % of YC-1 | 9 | –
2 | CN(C)CCCNC(=O)c1ccc(Oc2nn(Cc3ccccc3)c3ccccc23)o1 [Example 5, 5-[(1-benzyl-1H-indazol-3-yl)oxy]-N-[3-(dimethylamino)propyl]-2-furamide] | 65 % of YC-1 | 4 | 1.7
3 | CCCC(CO)NC(=O)c1ccc(Oc2nn(Cc3ccccc3)c3ccccc23)o1 (centres unmarked) [Example 7, 5-[(1-benzyl-1H-indazol-3-yl)oxy]-N-[1-(hydroxymethyl)butyl]-2-furamide] | 25 % of YC-1 | 3 | 3.1
4 | CC(CCCC(C)(C)O)NC(=O)c1ccc(Oc2nn(Cc3ccccc3)c3ccccc23)o1 (centres unmarked) [Example 8, 5-[(1-benzyl-1H-indazol-3-yl)oxy]-N-(5-hydroxy-1,5-dimethylhexyl)-2-furamide] | 9 % of YC-1 | 0 | 1.5
5 | O=C(NCC(O)c1ccccc1)c1ccc(Oc2nn(Cc3ccccc3)c3ccccc23)o1 (centres unmarked) [Example 9, 5-[(1-benzyl-1H-indazol-3-yl)oxy]-N-(2-hydroxy-2-phenylethyl)-2-furamide] | 13 % of YC-1 | 0 | 1.6
6 | O=C(NCCN1CCOCC1)c1ccc(Oc2nn(Cc3ccccc3)c3ccccc23)o1 [Example 10, 5-[(1-benzyl-1H-indazol-3-yl)oxy]-N-[2-(4-morpholinyl)ethyl]-2-furamide] | 11 % of YC-1 | 1 | 2.0
7 | c1ccc(Cn2nc(Oc3ccccn3)c3ccccc32)cc1 [Example 11, 1-benzyl-3-(2-pyridinyloxy)-1H-indazole] | 70 % of YC-1 | 9 | 2.8
8 | c1ccc(Cn2nc(Oc3ncccn3)c3ccccc32)cc1 [Example 12, 1-benzyl-3-(2-pyrimidinyloxy)-1H-indazole] | 43 % of YC-1 | -1 | 2.6
9 | FC(F)(F)c1cncc(Oc2nn(Cc3ccccc3)c3ccccc23)c1 [Example 13, 1-benzyl-3-{[5-(trifluoromethyl)-3-pyridinyl]oxy}-1H-indazole] | 15 % of YC-1 | 3 | 1.4
10 | NC(=O)c1cccnc1Oc1nn(Cc2ccccc2)c2ccccc12 [Example 14, 2-[(1-benzyl-1H-indazol-3-yl)oxy]nicotinamide] | 23 % of YC-1 | 0 | 1.8
11 | O=C(O)c1ccccc1Oc1nn(Cc2ccccc2)c2ccccc12 [Example 15, 2-[(1-benzyl-1H-indazol-3-yl)oxy]benzoic acid] | 47 % of YC-1 | 4 | 2.6
12 | CN(C)CCNC(=O)c1ccccc1Oc1nn(Cc2ccccc2)c2ccccc12 [Example 16, 2-[(1-benzyl-1H-indazol-3-yl)oxy]-N-[2-(dimethylamino)ethyl]benzamide] | 15 % of YC-1 | 6 | 1.9
13 | CN(C)CCCN1CCN(C(=O)c2ccccc2Oc2nn(Cc3ccccc3)c3ccccc23)CC1 [Example 17, N-[3-(4-{2-[(1-benzyl-1H-indazol-3-yl)oxy]benzoyl}-1-piperazinyl)propyl]-N,N-dimethylamine] | 14 % of YC-1 | 4 | 2.0
